Assay results from US20240180872A1, “METHODS AND COMPOUNDS OF CANNABIDIOL, MELATONIN AND AKBA FOR TREATING PANCREATIC CANCER” (priority 2021, published 2024).

Test system: pancreatic adenocarcinoma associated genes
Test: TaqMan Array gene expression in MIAPaCa-2, normalized for GAPDH
Format: cell-based, Human
Settings: Mia-PACA-2, 24 hs, CBD 3.8, MLT 200, AKBA 7.5 micrograms/ml; for GAPDH relative expression: GAPDH is the normalizer; for PK3CB relative expression / PK3CD relative expression / AKT1 relative expression / AKT2 relative expression / AKT3 relative expression / IGF1 relative expression / PK3CA relative expression / PK3R1 relative expression / BRCA2 relative expression / MDM2 relative expression / TP53 relative expression / HSP90AA1 relative expression / NFKB1 relative expression / NFKB2 relative expression / REL relative expression / RELA relative expression / RELB relative expression / RHOA relative expression / RHOB relative expression / BRAF relative expression / E2F1 relative expression / E2F3 relative expression / E2F4 relative expression / EGF relative expression / EGFR relative expression / ELK1 relative expression / ERBB2 relative expression / GRB2 relative expression / HBEGF relative expression / KRAS relative expression / MAP2K1 relative expression / MAP2K2 relative expression / MAPK1 relative expression / MAPK3 relative expression / RAF1 relative expression / RB1 relative expression / SOS1 relative expression / TGFB2 relative expression / TGFB3 relative expression / TGFBR1 relative expression / SMAD2 relative expression / SMAD3 relative expression / SMAD4 relative expression / TGFA relative expression / TGFB1 relative expression / TGFBR2 relative expression / FIGF relative expression / VEGFA relative expression / VEGFB relative expression / VEGFC relative expression / BCL2L1 relative expression / BCL2 relative expression / BIRC5 relative expression / CCNA2 relative expression / CCNB1 relative expression / CCND1 relative expression / CCND2 relative expression / CCNE1 relative expression / CCNE2 relative expression / CDC42 relative expression / CDK2 relative expression / CDK4 relative expression / CDKN1A relative expression / CDKN1B relative expression / CDKN2A relative expression / CDKN2B relative expression / CDKN2C relative expression / CDKN2D relative expression / IL6 relative expression / JAK1 relative expression / JAK2 relative expression / JAK3 relative expression / STAT1 relative expression / STAT2 relative expression / STAT3 relative expression / STAT6 relative expression / STATSB relative expression / MMP1 relative expression / MMP2 relative expression / MMP3 relative expression / MMP7 relative expression / MMP9 relative expression / PTGS2 relative expression / RAC1 relative expression / RAC2 relative expression / KIT relative expression / NOTCH1 relative expression / SRC relative expression: normalized for GAPDH; for PK3CB relative expression / PK3CD relative expression: Akt pathways; for AKT1 relative expression / AKT2 relative expression / AKT3 relative expression / IGF1 relative expression / PK3CA relative expression / PK3R1 relative expression: Akt-pathways; for BRCA2 relative expression / MDM2 relative expression / TP53 relative expression: DNA repair; for HSP90AA1 relative expression: Heat sock protein; for NFKB1 relative expression / NFKB2 relative expression / REL relative expression / RELA relative expression / RELB relative expression / RHOA relative expression / RHOB relative expression: NfkB pathways; for BRAF relative expression / E2F1 relative expression / E2F3 relative expression / E2F4 relative expression / EGF relative expression / EGFR relative expression / ELK1 relative expression / ERBB2 relative expression / GRB2 relative expression / HBEGF relative expression / KRAS relative expression / MAP2K1 relative expression / MAP2K2 relative expression / MAPK1 relative expression / MAPK3 relative expression / RAF1 relative expression / RB1 relative expression / SOS1 relative expression: Ras pathways; for TGFB2 relative expression / TGFB3 relative expression / TGFBR1 relative expression: TGF patways; for SMAD2 relative expression / SMAD3 relative expression / SMAD4 relative expression / TGFA relative expression / TGFB1 relative expression / TGFBR2 relative expression: TGF-patways; for FIGF relative expression / VEGFA relative expression / VEGFB relative expression / VEGFC relative expression: angiogenesis; for BCL2L1 relative expression / BCL2 relative expression / BIRC5 relative expression: apoptosis; for CCNA2 relative expression / CCNB1 relative expression / CCND1 relative expression / CCND2 relative expression / CCNE1 relative expression / CCNE2 relative expression / CDC42 relative expression / CDK2 relative expression / CDK4 relative expression / CDKN1A relative expression / CDKN1B relative expression / CDKN2A relative expression / CDKN2B relative expression / CDKN2C relative expression / CDKN2D relative expression: cell cycle; for IL6 relative expression / JAK1 relative expression / JAK2 relative expression / JAK3 relative expression / STAT1 relative expression / STAT2 relative expression / STAT3 relative expression / STAT6 relative expression / STATSB relative expression: inflammation; for MMP1 relative expression / MMP2 relative expression / MMP3 relative expression / MMP7 relative expression / MMP9 relative expression / PTGS2 relative expression / RAC1 relative expression / RAC2 relative expression: invasion; for KIT relative expression / NOTCH1 relative expression / SRC relative expression: proliferation
Method: Total RNA from untreated or CBD, MLT, AKBA alone and in combination treated cell lines was extracted using Rneasy Mini kit (Qiagen, Milan, Italy). One microgram of total RNA from each sample was subjected to reverse transcription in a total volume of 20 μL using the High-Capacity cDNA Archive Kit (Applied Biosystem, Foster City, […], USA) according to the instructions. cDNAs were analyzed by qRT-PCR performed using an IQ5 Multicolor Real time PCR Detection system. Quantitative real-time gene expression was performed with the TaqMan® Array Human Pancreatic Adenocarcinoma 96-well Plate, containing 92 assays to pancreatic adenocarcinoma associated genes and 4 assays to candidate endogenous control genes, was purchased (Thermo Fisher, Grand Island, NY, USA) and used to evaluate the treatments in modulating PDAC-related genes (Table 1). Measurement of different housekeeping genes (GAPDH; HPRT1; GUSB) on the samples was used to normalize mRNA content. The gene expression levels of treated cell lines were expressed as relative fold compared with untreated or vehicle-treated cells.
To elucidate the molecular events induced by CBD, MLT and AKBA alone and in combination, 92 genes involved in PDAC progression and aggressiveness were evaluated by Taqman Array. Both cell lines were treated with CBD, MLT and AKBA alone and in combination, and the molecular pathways of PDAC associated gene were evaluated.
Target mRNA levels were normalized for GAPDH expression.

What does the source list for COc1ccc2[nH]cc(CCNC(C)=O)c2c1 [MLT, N-[2-(5-methoxy-1H-indol-3-yl)ethyl]acetamide]?
GAPDH relative expression: 1.00; PK3CB relative expression: 0.15; PK3CD relative expression: 0.07; AKT1 relative expression: 0.09; AKT2 relative expression: 0.55; AKT3 relative expression: 0.00; IGF1 relative expression: 0.00; PK3CA relative expression: 0.00; PK3R1 relative expression: 0.03; BRCA2 relative expression: 0.40; MDM2 relative expression: 0.00; TP53 relative expression: 0.26; HSP90AA1 relative expression: 0.00; NFKB1 relative expression: 0.11; NFKB2 relative expression: 0.02; REL relative expression: 0.09; RELA relative expression: 0.00; RELB relative expression: 0.06; RHOA relative expression: 0.07; RHOB relative expression: 0.03; BRAF relative expression: 0.16; E2F1 relative expression: 0.16; E2F3 relative expression: 0.09; E2F4 relative expression: 0.19; EGF relative expression: 0.00; EGFR relative expression: 0.19; ELK1 relative expression: 0.11; ERBB2 relative expression: 0.05; GRB2 relative expression: 0.28; HBEGF relative expression: 0.46; KRAS relative expression: 0.01; MAP2K1 relative expression: 0.04; MAP2K2 relative expression: 0.09; MAPK1 relative expression: 0.03; MAPK3 relative expression: 0.01; RAF1 relative expression: 0.07; RB1 relative expression: 0.03; SOS1 relative expression: 0.07; TGFB2 relative expression: 0.00; TGFB3 relative expression: 0.00; TGFBR1 relative expression: 0.00; SMAD2 relative expression: 0.21; SMAD3 relative expression: 0.24; SMAD4 relative expression: 0.09; TGFA relative expression: 0.20; TGFB1 relative expression: 0.04; TGFBR2 relative expression: 0.00; FIGF relative expression: 0.14; VEGFA relative expression: 0.02; VEGFB relative expression: 0.04; VEGFC relative expression: 0.00; BCL2L1 relative expression: 0.26; BCL2 relative expression: 0.00; BIRC5 relative expression: 0.16; CCNA2 relative expression: 0.09; CCNB1 relative expression: 0.40; CCND1 relative expression: 0.12; CCND2 relative expression: 0.00; CCNE1 relative expression: 0.13; CCNE2 relative expression: 0.09; CDC42 relative expression: 0.00; CDK2 relative expression: 0.09; CDK4 relative expression: 0.20; CDKN1A relative expression: 0.08; CDKN1B relative expression: 0.11; CDKN2A relative expression: 0.20; CDKN2B relative expression: 1.98; CDKN2C relative expression: 0.17; CDKN2D relative expression: 0.05; IL6 relative expression: 0.00; JAK1 relative expression: 0.02; JAK2 relative expression: 0.02; JAK3 relative expression: 0.00; STAT1 relative expression: 0.13; STAT2 relative expression: 0.00; STAT3 relative expression: 0.08; STAT6 relative expression: 0.01; STATSB relative expression: 0.49; MMP1 relative expression: 0.08; MMP2 relative expression: 0.00; MMP3 relative expression: 0.01; MMP7 relative expression: 0.01; MMP9 relative expression: 0.04; PTGS2 relative expression: 0.03; RAC1 relative expression: 0.00; RAC2 relative expression: 0.01; KIT relative expression: 0.01; NOTCH1 relative expression: 0.38; SRC relative expression: 0.07

Which results are given for C=C(C)[C@@H]1CCC(C)=C[C@H]1c1c(O)cc(CCCCC)cc1O [CBD, 2-[(1R,6R)-3-methyl-6-prop-1-en-2-ylcyclohex-2-en-1-yl]-5-pentylbenzene-1,3-diol]?
GAPDH relative expression: 1.00; PK3CB relative expression: 0.10; PK3CD relative expression: 0.08; AKT1 relative expression: 0.10; AKT2 relative expression: 0.54; AKT3 relative expression: 0.00; IGF1 relative expression: 0.00; PK3CA relative expression: 0.03; PK3R1 relative expression: 0.04; BRCA2 relative expression: 0.16; MDM2 relative expression: 0.04; TP53 relative expression: 0.22; HSP90AA1 relative expression: 0.42; NFKB1 relative expression: 0.04; NFKB2 relative expression: 0.15; REL relative expression: 0.11; RELA relative expression: 0.06; RELB relative expression: 0.26; RHOA relative expression: 0.34; RHOB relative expression: 0.04; BRAF relative expression: 0.22; E2F1 relative expression: 0.15; E2F3 relative expression: 0.08; E2F4 relative expression: 0.19; EGF relative expression: 0.00; EGFR relative expression: 0.21; ELK1 relative expression: 0.09; ERBB2 relative expression: 0.02; GRB2 relative expression: 0.13; HBEGF relative expression: 0.13; KRAS relative expression: 0.09; MAP2K1 relative expression: 0.00; MAP2K2 relative expression: 0.08; MAPK1 relative expression: 0.07; MAPK3 relative expression: 0.01; RAF1 relative expression: 0.01; RB1 relative expression: 0.06; SOS1 relative expression: 0.06; TGFB2 relative expression: 0.08; TGFB3 relative expression: 0.00; TGFBR1 relative expression: 0.02; SMAD2 relative expression: 0.06; SMAD3 relative expression: 0.18; SMAD4 relative expression: 0.07; TGFA relative expression: 0.64; TGFB1 relative expression: 0.06; TGFBR2 relative expression: 0.00; FIGF relative expression: 0.11; VEGFA relative expression: 0.02; VEGFB relative expression: 0.06; VEGFC relative expression: 0.03; BCL2L1 relative expression: 0.26; BCL2 relative expression: 0.00; BIRC5 relative expression: 0.11; CCNA2 relative expression: 0.01; CCNB1 relative expression: 0.37; CCND1 relative expression: 0.11; CCND2 relative expression: 0.00; CCNE1 relative expression: 0.10; CCNE2 relative expression: 0.12; CDC42 relative expression: 0.05; CDK2 relative expression: 0.15; CDK4 relative expression: 0.25; CDKN1A relative expression: 0.04; CDKN1B relative expression: 0.11; CDKN2A relative expression: 0.26; CDKN2B relative expression: 0.42; CDKN2C relative expression: 0.03; CDKN2D relative expression: 0.04; IL6 relative expression: 0.00; JAK1 relative expression: 0.27; JAK2 relative expression: 0.01; JAK3 relative expression: 0.01; STAT1 relative expression: 0.11; STAT2 relative expression: 0.04; STAT3 relative expression: 0.06; STAT6 relative expression: 0.79; STATSB relative expression: 0.03; MMP1 relative expression: 0.00; MMP2 relative expression: 0.07; MMP3 relative expression: 0.00; MMP7 relative expression: 0.01; MMP9 relative expression: 0.01; PTGS2 relative expression: 0.00; RAC1 relative expression: 0.11; RAC2 relative expression: 0.01; KIT relative expression: 0.00; NOTCH1 relative expression: 0.02; SRC relative expression: 0.03
